From ChEMBL document CHEMBL1201862, “PubChem BioAssay data set” (2004)
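Assay format: 96-well plates, 48-hour exposure. Abbreviation: GI50, concentration required for 50% inhibition of growth.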 Active and inactive are the calls of the source. Rule as the data show it: active = GI50 up to about 1.1 µM and inactive = higher.

Legend:
Assay in all cases: growth of human tumour cells (NCI), 48 h
[1] = tested on: KM-20L2
[2] = tested on: HL-60
[3] = tested on: K562
[4] = tested on: HT-29
[5] = tested on: SF-539
[6] = tested on: SNB-19
[7] = tested on: CAKI-1
[8] = tested on: A549
[9] = tested on: SF-268
[10] = tested on: SK-MEL-2
[11] = tested on: TK-10
[12] = tested on: LXFL 529
[13] = tested on: NCI-H23
[14] = tested on: HOP-92
[15] = tested on: SF-295
[16] = tested on: 786-0
[17] = tested on: RPMI-8226
[18] = tested on: OVCAR-3
[19] = tested on: IGROV-1
[20] = tested on: SR
[21] = tested on: MOLT-4
[22] = tested on: HOP-62
[23] = tested on: OVCAR-8
[24] = tested on: UACC-62
[25] = tested on: SN12C
[26] = tested on: OVCAR-5
[27] = tested on: SW-620
[28] = tested on: RXF 393
[29] = tested on: ACHN
[30] = tested on: HOP-18
[31] = tested on: CCRF-CEM
[32] = tested on: SK-MEL-28
[33] = tested on: DLD-1
[34] = tested on: DMS-114
[35] = tested on: LOX IMVI
[36] = tested on: UO-31
[37] = tested on: NCI-H226
[38] = tested on: SK-MEL-5
[39] = tested on: COLO 205
[40] = tested on: SNB-75
[41] = tested on: OVCAR-4
[42] = tested on: SNB-78
[43] = tested on: NCI-H522
[44] = tested on: NCI-H460
[45] = tested on: SK-OV-3
[46] = tested on: HCC 2998
[47] = tested on: UACC-257
[48] = tested on: DMS-273
[49] = tested on: HCT-15
[50] = tested on: KM12
[51] = tested on: EKVX
[52] = tested on: U-251
[53] = tested on: Malme-3M
[54] = tested on: M14
[55] = tested on: HCT-116
[56] = tested on: A498
[57] = tested on: XF498
[58] = tested on: M19-MEL

What does the source list for `O=C(NC12CC3CC(CC(C3)C1)C2)C(=O)c1c[nH]c2ccc(Br)cc12`?
GI50 [1]: 4.54 µM (inactive); GI50 [2]: 5.02 µM (inactive); GI50 [3]: 8.39 µM (inactive); GI50 [4]: 3.71 µM (inactive); GI50 [5]: 19 µM (inactive); GI50 [6]: 33.5 µM (inactive); GI50 [7]: 39.3 µM (inactive); GI50 [8]: 14.4 µM (inactive); GI50 [9]: 9.59 µM (inactive); GI50 [10]: 56.9 µM (inactive); GI50 [11]: 28.8 µM (inactive); GI50 [12]: 15.5 µM (inactive); GI50 [13]: 33.1 µM (inactive); GI50 [14]: 20.8 µM (inactive); GI50 [15]: 4.18 µM (inactive); GI50 [16]: 7.13 µM (inactive); GI50 [17]: 6.67 µM (inactive); GI50 [18]: 11.2 µM (inactive); GI50 [19]: 45.5 µM (inactive); GI50 [20]: 10 µM (inactive); GI50 [21]: 5.41 µM (inactive); GI50 [22]: 7.06 µM (inactive); GI50 [23]: 18.1 µM (inactive); GI50 [24]: 23.5 µM (inactive); GI50 [25]: 18.5 µM (inactive); GI50 [26]: 36.9 µM (inactive); GI50 [27]: 25 µM (inactive); GI50 [28]: 2.43 µM (inactive); GI50 [29]: 15.6 µM (inactive); GI50 [30]: 19.1 µM (inactive); GI50 [31]: 3.86 µM (inactive); GI50 [32]: 43.1 µM (inactive); GI50 [33]: 13.4 µM (inactive); GI50 [34]: 65.9 µM (inactive); GI50 [35]: 5.25 µM (inactive); GI50 [36]: 26.2 µM (inactive); GI50 [37]: 20.2 µM (inactive); GI50 [38]: 41 µM (inactive); GI50 [39]: 18.6 µM (inactive); GI50 [40]: 12.6 µM (inactive); GI50 [41]: 14 µM (inactive); GI50 [42]: 35.7 µM (inactive); GI50 [43]: 56 µM (inactive); GI50 [44]: 10.2 µM (inactive); GI50 [45]: 25.9 µM (inactive); GI50 [46]: 22.6 µM (inactive); GI50 [47]: 43.4 µM (inactive); GI50 [48]: 4.54 µM (inactive); GI50 [49]: 5.79 µM; GI50 [50]: 7.08 µM (inactive); GI50 [51]: 73.1 µM (inactive); GI50 [52]: 12.1 µM (inactive); GI50 [53]: 17.9 µM (inactive); GI50 [54]: 7.05 µM (inactive); GI50 [55]: 14.6 µM (inactive)

For `CC(C)OP(=S)(NC(=S)c1ccccc1)OC(C)C`, which GI50 [1] is on record?
Its GI50 is > 100 µM (inactive).

What about the GI50 [3] of the same molecule?
The GI50 was > 100 µM (inactive).

What about the GI50 [4] of the same molecule?
Its GI50 is > 100 µM (inactive).

What about the GI50 [5] of the same molecule?
Its GI50 is > 100 µM (inactive).

What about the GI50 [6] of the same molecule?
The GI50 was > 100 µM (inactive).

And the GI50 [7]?
The GI50 was > 100 µM (inactive).

And the GI50 [8]?
The GI50 was > 100 µM (inactive).

What about the GI50 [9] of the same molecule?
The GI50 was > 100 µM (inactive).

What about the GI50 [10] of the same molecule?
The GI50 was > 100 µM (inactive).

What about the GI50 [11] of the same molecule?
The GI50 was > 100 µM (inactive).

And the GI50 [12]?
Its GI50 is 87.3 µM (inactive).

And the GI50 [13]?
Its GI50 is > 100 µM (inactive).

And the GI50 [14]?
Its GI50 is > 100 µM (inactive).

And the GI50 [15]?
Its GI50 is 76.2 µM (inactive).

What about the GI50 [16] of the same molecule?
The GI50 was > 100 µM (inactive).

What about the GI50 [18] of the same molecule?
The GI50 was > 100 µM (inactive).

And the GI50 [19]?
Its GI50 is > 100 µM (inactive).

And the GI50 [21]?
Its GI50 is > 100 µM (inactive).

What about the GI50 [23] of the same molecule?
The GI50 was > 100 µM (inactive).

And the GI50 [24]?
The GI50 was > 100 µM (inactive).

What about the GI50 [25] of the same molecule?
The GI50 was > 100 µM (inactive).

What about the GI50 [26] of the same molecule?
The GI50 was > 100 µM (inactive).

What about the GI50 [27] of the same molecule?
The GI50 was > 100 µM (inactive).

And the GI50 [56]?
Its GI50 is > 100 µM (inactive).

And the GI50 [29]?
Its GI50 is > 100 µM (inactive).

What about the GI50 [31] of the same molecule?
Its GI50 is > 100 µM (inactive).

And the GI50 [32]?
Its GI50 is > 100 µM (inactive).

And the GI50 [33]?
The GI50 was > 100 µM (inactive).

What about the GI50 [34] of the same molecule?
The GI50 was 78 µM (inactive).

What about the GI50 [35] of the same molecule?
Its GI50 is > 100 µM (inactive).

What about the GI50 [36] of the same molecule?
Its GI50 is > 100 µM (inactive).

What about the GI50 [37] of the same molecule?
Its GI50 is > 100 µM (inactive).

And the GI50 [38]?
Its GI50 is 42.9 µM (inactive).

And the GI50 [39]?
The GI50 was > 100 µM (inactive).

And the GI50 [40]?
The GI50 was > 100 µM (inactive).

And the GI50 [41]?
The GI50 was > 100 µM (inactive).

And the GI50 [42]?
The GI50 was > 100 µM (inactive).

And the GI50 [44]?
Its GI50 is 59 µM (inactive).

What about the GI50 [45] of the same molecule?
Its GI50 is > 100 µM (inactive).

And the GI50 [46]?
Its GI50 is > 100 µM (inactive).

What about the GI50 [47] of the same molecule?
The GI50 was > 100 µM (inactive).

What about the GI50 [48] of the same molecule?
Its GI50 is > 100 µM (inactive).

What about the GI50 [49] of the same molecule?
Its GI50 is over 100 µM.

What about the GI50 [57] of the same molecule?
Its GI50 is > 100 µM (inactive).

And the GI50 [50]?
The GI50 was > 100 µM (inactive).

What about the GI50 [51] of the same molecule?
Its GI50 is > 100 µM (inactive).

And the GI50 [52]?
The GI50 was > 100 µM (inactive).

And the GI50 [53]?
The GI50 was > 100 µM (inactive).

And the GI50 [54]?
Its GI50 is > 100 µM (inactive).

And the GI50 [55]?
Its GI50 is > 100 µM (inactive).

What does the source list for `CSc1nc(NC2OC(COC(C)=O)C(OC(C)=O)C(OC(C)=O)C2OC(C)=O)c(-c2csc(N)n2)c(=O)n1C` (stereo not drawn)?
GI50 [1]: > 100 µM (inactive); GI50 [2]: > 100 µM (inactive); GI50 [3]: > 100 µM (inactive); GI50 [4]: > 100 µM (inactive); GI50 [5]: 25.2 µM (inactive); GI50 [6]: 56.6 µM (inactive); GI50 [7]: 31.3 µM (inactive); GI50 [8]: 43.4 µM (inactive); GI50 [9]: 22.5 µM (inactive); GI50 [10]: 28.6 µM (inactive); GI50 [11]: > 100 µM (inactive); GI50 [12]: 31.7 µM (inactive); GI50 [13]: 39.3 µM (inactive); GI50 [14]: 23.5 µM (inactive); GI50 [15]: 33.6 µM (inactive); GI50 [16]: 18.5 µM (inactive); GI50 [17]: > 100 µM (inactive); GI50 [18]: 54 µM (inactive); GI50 [19]: 34.1 µM (inactive); GI50 [20]: > 100 µM (inactive); GI50 [21]: > 100 µM (inactive); GI50 [22]: 24.2 µM (inactive); GI50 [23]: 26.1 µM (inactive); GI50 [24]: 26.1 µM (inactive); GI50 [25]: 49.5 µM (inactive); GI50 [26]: > 100 µM (inactive); GI50 [58]: 47.6 µM (inactive); GI50 [27]: > 100 µM (inactive); GI50 [56]: > 100 µM (inactive); GI50 [29]: 31.5 µM (inactive); GI50 [30]: 16.6 µM (inactive); GI50 [31]: > 100 µM (inactive); GI50 [32]: 37.7 µM (inactive); GI50 [33]: 44.8 µM (inactive); GI50 [34]: 34.8 µM (inactive); GI50 [35]: 93.3 µM (inactive); GI50 [36]: 24.6 µM (inactive); GI50 [37]: 15.7 µM (inactive); GI50 [38]: 57.5 µM (inactive); GI50 [39]: > 100 µM (inactive); GI50 [40]: 18 µM (inactive); GI50 [41]: 21.8 µM (inactive); GI50 [42]: 22.4 µM (inactive); GI50 [43]: 56.2 µM (inactive); GI50 [44]: 39.1 µM (inactive); GI50 [45]: 50.7 µM (inactive); GI50 [47]: 32.9 µM (inactive); GI50 [49]: 97.1 µM; GI50 [50]: > 100 µM (inactive); GI50 [52]: 34.3 µM (inactive); GI50 [53]: 28.9 µM (inactive); GI50 [54]: 39.1 µM (inactive); GI50 [55]: 31 µM (inactive)
